Experiments:
Details in all cases: 72 h
[1] = system: HepG2; experiment: drug sensitivity score (DSS) for viability; higher = more toxic; extreme values may be limits of the assay
[2] = system: Calu-3; experiment: as above
[3] = system: Caco-2; experiment: as above
[4] = system: U2OS; experiment: as above
[5] = system: Vero E6; experiment: as above
[6] = system: HepG2; experiment: cell viability relative to DMSO; higher = less toxic
[7] = system: Calu-3; experiment: as above
[8] = system: Caco-2; experiment: as above
[9] = system: U2OS; experiment: as above
[10] = system: Vero E6; experiment: as above
[11] = system: HepG2; experiment: relative viability EC50 (midpoint between 100% and the lowest measured viability); higher = less toxic
[12] = system: Calu-3; experiment: as above
[13] = system: Caco-2; experiment: as above
[14] = system: U2OS; experiment: as above
[15] = system: Vero E6; experiment: as above

SMILES | drug sensitivity score [1] | drug sensitivity score [2] | drug sensitivity score [3] | drug sensitivity score [4] | drug sensitivity score [5] | cell viability ([6]; 1 nM) | cell viability ([6]; 10 nM) | cell viability ([6]; 100 nM) | cell viability ([6]; 1000 nM) | cell viability ([6]; 10000 nM) | cell viability ([7]; 1 nM) | cell viability ([7]; 10 nM) | cell viability ([7]; 100 nM) | cell viability ([7]; 1000 nM) | cell viability ([7]; 10000 nM) | cell viability ([8]; 1 nM) | cell viability ([8]; 10 nM) | cell viability ([8]; 100 nM) | cell viability ([8]; 1000 nM) | cell viability ([8]; 10000 nM) | cell viability ([9]; 1 nM) | cell viability ([9]; 10 nM) | cell viability ([9]; 100 nM) | cell viability ([9]; 1000 nM) | cell viability ([9]; 10000 nM) | cell viability ([10]; 1 nM) | cell viability ([10]; 10 nM) | cell viability ([10]; 100 nM) | cell viability ([10]; 1000 nM) | cell viability ([10]; 10000 nM) | relative viability EC50 [11] | relative viability EC50 [12] | relative viability EC50 [13] | relative viability EC50 [14] | relative viability EC50 [15]
Cc1c(-c2ccccc2)oc2c(C(=O)OCCN3CCCCC3)cccc2c1=O [flavoxate] | 0 | 0 | 0 | 0 | 0 | 102% | 99.2% | 104% | 98.3% | 96.1% | 94.9% | 91.9% | 91.7% | 105% | 110% | 89.1% | 91.5% | 92.9% | 97.1% | 108% | 97.3% | 101% | 93% | 104% | 98.8% | 98.1% | 91.7% | 96.2% | 94.1% | 107% | > 10 µM | > 10 µM | > 10 µM | > 10 µM | > 10 µM
C[C@@H]1C[C@H]2[C@@H]3C[C@H](F)C4=CC(=O)C=C[C@]4(C)[C@@]3(F)[C@@H](O)C[C@]2(C)[C@@]1(O)C(=O)COC(=O)C(C)(C)C [flumethasone-pivalate] | 0.3 | 0 | 0.1 | 0 | 0.6 | 82.4% | 100% | 87.4% | 103% | 82.6% | 113% | 102% | 106% | 94.3% | 100% | 121% | 103% | 122% | 94.9% | 89% | 106% | 102% | 102% | 97.6% | 101% | 96.6% | 95.3% | 101% | 96.3% | 84.5% | > 10 µM | > 10 µM | > 10 µM | > 10 µM | > 10 µM
C[C@@H]1C[C@H]2[C@@H]3C[C@H](F)C4=CC(=O)C=C[C@]4(C)[C@@]3(F)[C@@H](O)C[C@]2(C)[C@@]1(O)C(=O)CO [flumethasone] | 0 | 0 | 0 | 0 | 0 | 96.8% | 109% | 96.1% | 91.2% | 91.8% | 95.5% | 100% | 106% | 92.2% | 101% | 84.6% | 94.5% | 106% | 94.1% | 103% | 96.6% | 93.5% | 98.1% | 92.1% | 92.7% | 107% | 105% | 97% | 105% | 101% | > 10 µM | > 10 µM | > 10 µM | > 10 µM | > 10 µM

From the supplement of paper PMC13380429
